The text below walks through data of patent US11185100B2 (priority 2014, dated 2021).

Assay [1] concerns the target T1, cat T1R1/T1R3 receptor (Felis catus, UniProt E3UMS2). Description: Activation of cat T1R1/T1R3 receptor by nucleotide derivatives alone, with alanine and/or IMP; HEK293 cells, intracellular calcium fluorescence (Example 1). It counts as cell-based. The text has this: […] Activation of the T1R1/T1R3 receptor was detected by a change in intracellular calcium levels using a calcium sensitive fluorescent dye. Cells that express T1R3 but not T1R1 were used as a control. A FLIPR® Tetra or a FlexStation® 3 was used for data capture.
The term half maximal effective concentration (EC50) refers to the concentration of a compound which induces a response halfway between the baseline and the maximum after a specified exposure time. In each experiment, serial dilutions of up to 0.1 mM, 1 mM or 10 mM of the nucleotide derivative were added to the T1R1/T1R3-expressing cells.
For orientation: Calcium assays in cells follow changes in intracellular calcium, usually with a dye or a luminescent sensor.

Assay [2] addresses T2, T1R1/T1R3 receptor (Felis catus, UniProt E3UMS2). Kind of assay: Agonist screening of transmembrane compounds on T1R1/T1R3 in HEK293 cells (Example 8). It counts as cell-based, cat. The note with it: compound alone. As to the method: Agonist Screening Method: HEK293 cells that stably express T1R3 and inducibly express T1R1 were exposed to a transmembrane compound. Activation of the T1R1/T1R3 receptor was detected by a change in intracellular calcium levels using a calcium sensitive fluorescent dye and/or a luminescent reporter system. […] A FLIPR® Tetra or a FlexStation® 3 was used for data capture.
Each transmembrane compound was tested at concentrations of 0.01 mM, 0.1 mM, and 1 mM. […] To generate the dose response curves, the transmembrane compound was tested at concentrations of between 0.0001 mM and 1.0 mM in the presence of GMP and Ala.

Assay [3] addresses T2, T1R1/T1R3 receptor. Kind of assay: PAM screening of transmembrane compounds with GMP and Ala on T1R1/T1R3 in HEK293 cells (Example 8). It counts as cell-based, cat. The note with it: in the presence of GMP and Alanine. The source says:
PAM Screening Method: HEK293 cells that stably express T1R3 and inducibly express T1R1 were exposed to transmembrane compound alone or in combination with Ala and GMP to activate the umami receptor. Activation of the T1R1/T1R3 receptor was detected by a change in intracellular calcium levels using a calcium sensitive fluorescent dye and/or a luminescent reporter system. […] A FLIPR® Tetra or a FlexStation® 3 was used for data capture.
Dose response curves were generated for each transmembrane compound at concentrations of 0 (buffer only), 0.01, 0.1 and 1 mM, wherein each of the three concentrations of transmembrane compound was tested in combination with 0.03 mM GMP+100 mM Ala (T1); 0.6 mM GMP+10 mM Ala (T2); 0.1 mM GMP+60 mM Ala (T3) and 0.3 mM GMP+60 mM Ala (T4). The T4 mixture was also tested in a 2-fold dilution series (the T4(X) Concentration). In these experiments, the first test concentration was 2× (2 times) the T4 concentration. The subsequent test concentrations were 2-fold dilutions from that (1×, 0.5× etc.). This dilution series was tested with or without the addition of the test compound at a constant 0.3 mM concentration.
Activation of the umami receptor was also determined in the presence of 1 mM GMP+100 mM Ala to generate a “maximum” umami receptor activation level.

Assay [4] has as its target T2, T1R1/T1R3 receptor. Description: Activation of T1R1/T1R3 receptor by transmembrane compounds and nucleotide derivatives, conducted as in Examples 1, 2 and 5 (Example 7). It counts as cell-based, cat. The source says: Methods: HEK293 cells that stably express T1R3 and inducibly express T1R1 were exposed to nucleotide derivatives alone to activate the umami receptor. Activation of the T1R1/T1R3 receptor was detected by a change in intracellular calcium levels using a calcium sensitive fluorescent dye. Cells that express T1R3 but not T1R1 were used as a control. A FLIPR® Tetra or a FlexStation® 3 was used for data capture.
Methods: HEK293 cells that stably express T1R3 and inducibly express T1R1 were exposed to nucleotide derivatives alone or in combination with one or more amino acids and/or one or more nucleotides to activate the umami receptor. Activation of the T1R1/T1R3 receptor was detected by a change in intracellular calcium levels using a calcium sensitive fluorescent dye and/or a luminescent reporter system. Cells that express T1R3 but not T1R1 were used as a control. A FLIPR® Tetra or a FlexStation® 3 was used for data capture.
Methods: HEK293 cells that stably express T1R3 and inducibly express T1R1 were exposed to transmembrane compounds alone or in combination with one or more amino acids and/or one or more nucleotides to activate the umami receptor. Activation of the T1R1/T1R3 receptor was detected by a change in intracellular calcium levels using a calcium sensitive fluorescent dye. Cells that express T1R3 but not T1R1 were used as a control. A FLIPR® Tetra or a FlexStation® 3 was used for data capture.
In each experiment, serial dilutions of up to 10 mM of the transmembrane compound were added to the T1R1/T1R3-expressing cells.

In assay [5] the target is T1, cat T1R1/T1R3 receptor. Description: cell-based. It counts as cell-based. In outline: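 Umami receptor activation in HEK293 cells stably expressing T1R3 with inducible T1R1, exposed to nucleotide derivatives alone or combined with amino acids and/or nucleotides. Intracellular calcium read with a calcium-sensitive fluorescent dye and/or luminescent reporter; cells expressing T1R3 without T1R1 served as control.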

[6] abbreviates: compound alone in buffer, read-out: EC50- alone.
Where [7] appears, read: EC50- with IMP (mM), with 0.2 mM IMP.
[8] abbreviates: with 20 mM alanine, read-out: EC50- with Ala.

Counter-ions that a name gives are not always drawn.

A word on the EC50: it is the concentration giving half of the maximal effect.

`C[C@H](N)C(=O)O` [alanine, reference compound]: on cat T1R1/T1R3 receptor [1] (setting [6]), the EC50 came out at 13.6 mM.
Take `COC(=O)[C@H](Cc1ccccc1)NCc1ccccc1` [N-Benzyl-L-phenylalanine methyl ester]: on T1R1/T1R3 receptor [2], the “agonist profile assessment (activation of T1R1/T1R3 by the compound alone)” value is “agonist”. Further, the “PAM profile assessment (activation of T1R1/T1R3 in the presence of GMP and Alanine)” value at T1R1/T1R3 receptor [3] is “PAM activity”. On T1R1/T1R3 receptor [4], the “Max resp ΔF/F +Alanine (20 mM)” value is on record as 1.8725 ΔF/F and the “Thres +Alanine (20 mM)” value is 0.01 mM. Also, at T1R1/T1R3 receptor [4] (+IMP (0.2 mM)), the “Max resp % of Ala +IMP (0.2 mM)” value is on record as 289.4 % of Ala, the “Max resp ΔF/F +IMP (0.2 mM)” value is on record as 2.2500 ΔF/F and the “Thres +IMP (0.2 mM)” value worked out at 0.003 mM. The “Max resp % of IMP +Alanine (20 mM)” value on T1R1/T1R3 receptor [4] (hek293 cells) is given as 273.4 % of IMP. Further, the result at T1R1/T1R3 receptor [4] (modulation of T1R1/T1R3) was active.
In the case of `Nc1ncnc2c1ncn2C1OC(COP(=O)(O)O)C(OP(=O)(O)O)C1O` (stereo not drawn) [listing 1 of 2 here], the EC50 on cat T1R1/T1R3 receptor [1] (setting [7]), on cat T1R1/T1R3 receptor [1] (setting [6]) and at cat T1R1/T1R3 receptor [1] (setting [8]) was greater than 0.01 mM in each case.
`Nc1ncnc2c1ncn2C1OC(COP(=O)(O)O)C(OP(=O)(O)O)C1O` (stereo not drawn) [listing 2 of 2 here]: the values for the EC50 on cat T1R1/T1R3 receptor [1] (setting [6]) and at cat T1R1/T1R3 receptor [1] (setting [8]) were greater than 0.03 mM and 0.003 ± 0.0003 mM, respectively.
With `O=c1nc[nH]c2c1ncn2C1O[C@H](COP(=O)(O)OP(=O)(O)OP(=O)(O)O)[C@@H](O)[C@H]1O` (stereo partly drawn) [inosine triphosphate (ITP) trisodium salt], the EC50 on cat T1R1/T1R3 receptor [1] (EC50- with Ala and IMP (mM), with 20 mM alanine and 0.2 mM IMP) worked out at 0.03 ± 0.01 mM; at cat T1R1/T1R3 receptor [1] (setting [7]), 0.02 ± 0.03 mM; on cat T1R1/T1R3 receptor [1] (setting [6]), 0.05 ± 0.03 mM; at cat T1R1/T1R3 receptor [5] (in the presence of 20 mM alanine, read-out: EC50- with Ala), 80 µM. Also, the outcome at cat T1R1/T1R3 receptor [5] was active. Moreover, at cat T1R1/T1R3 receptor [5] (hek293 cells), the “Max. resp. % of IMP” value is 25.1 % of IMP.
